Like-named read-outs stand apart in the source and are kept apart here.
Assays:
[1] = test system: NCI-H2452 (NF2 wide-type); assay: Inhibition of cell proliferation (CellTiter-Lumi); format: cell-based; conditions: Homo sapiens, 72 h + another 72 h treatment
Procedure: (§1) NCI-H2052 (NF2 mutant), NCI-H226 (NF2 mutant), NCI-H2452 (NF2 wide-type), NCI-H28 (NF2 wide-type), and MSTO-211H (NF2 wide-type) cells were cultured in RPMI 1640 complete media.
(§2) The normally growing cells described above were digested with a trypsin cell-digesting solution, centrifuged, counted, and then plated in a 96-well plate at a density of 1000 cells per well. Administration was performed 24 h after the cell plating. Inhibitors at different concentration gradients were added at 10 µL per well, and three replicate wells were set for each concentration point. The starting concentration was 20 µM and diluted 8 times with a 4-fold gradient. A corresponding negative control group treated with 0.1% DMSO was also set up. After 72 h of drug treatment, the cell culture plate to be tested was taken out of the incubator. The culture medium in the 96-well plate was pipetted, and 190 µL of fresh RPMI 1640 complete medium was added. Another administration was performed, and the cells were cultured for another 72 h. The 96-well plate was taken out and allowed to equilibrate at room temperature for 10 min. […] After shaking for two minutes, the mixture was reacted at room temperature for 10 min. Then, 150 µL of liquid was pipetted from the transparent 96-well plate and transferred to a white 96-well plate for chemiluminescence reading. The background value was subtracted from the value for each well to calculate the cell survival rate. Survival rate (%) = […]. Sample is the chemiluminescence of the drug-treated group, and Vehicle is the […] of the DMSO control group. A sigmoidal dose-survival rate curve was plotted using a non-linear regression model in the GraphPad Prism 7.0 software, and the IC50 values or GI50 values were calculated.

NCI-H28 (NF2 wide-type) = assay: Inhibition of cell proliferation (CellTiter-Lumi); format: cell-based; conditions: Homo sapiens, 72 h + another 72 h treatment
Procedure: as §1, §2

[2] = test system: YAP-TEAD transcription complex; assay: YAP-TEAD reporter gene assay (dual luciferase, stably transfected 293T cells); format: cell-based; conditions: Homo sapiens, HEK-293T
Procedure: YAP-TEAD reporter gene The YAP-TEAD reporter gene assay was performed as follows. Firstly, the 8xGTIIC promoter sequence ([…] GTACTGTTGGTAAA) was constructed into a pGL4.20(luc2-Puro) plasmid, and the TK promoter ([…]) unrelated to the hippo pathway was constructed into a pGL4.78(hRlucCP/Hygro) plasmid, thereby constructing stably transfected 293T cells that can stably and continuously express the transcriptional activity of the YAP-TEAD transcription complex. After selection and identification of individual clones, the clones were grown and maintained in a DMEM medium containing 10% fetal bovine serum, penicillin-streptomycin solution, 1 µg/mL puromycin, and 150 µg/mL hygromycin. To perform reporter gene assays with the compounds to be tested, the well-growing cells described above were plated in a 384-well plate at a cell density of 3000 cells per well, with 90 µL per well. The periphery was sealed with an appropriate amount of PBS to prevent evaporation of water from the peripheral wells. Administration was performed on the next day after the cell plating. The test compounds were added at different concentration gradients, and three replicate wells were set for each concentration point. The compound concentration started at 5 µM and was diluted seven times with a 5-fold gradient. A corresponding negative control group treated with DMSO was also set up. After 24 h of drug treatment, the detection reagents were prepared first. The Dual-Lumi™ Firefly luciferase detection reagent and Dual-Lumi™ Renilla luciferase detection buffer were dissolved and brought to room temperature. […]. According to the amount of 100 µL of Dual-Lumi™ Renilla luciferase detection working solution required for the detection of each sample, an appropriate amount of Dual-Lumi™ Renilla luciferase detection working solution was prepared. […]. The cell culture plate was taken out and allowed to equilibrate at room temperature for 10 min (usually no more than 30 min). Then, 100 µL of Dual-Lumi™ Firefly luciferase detection reagent was added to each well of a 96-well plate (25 µL per well for the 384-well plate), and the mixture was mixed well. The mixture was then incubated at room temperature (about 25 °C) for 10 min to stabilize the luminescent signal, and then chemiluminescence was detected using a multimode microplate reader with a chemiluminescence detection function. Subsequently, the detection of Renilla luciferase began. Firstly, 100 µL of Dual-Lumi™ Renilla luciferase detection working solution was added to each well of a […] (25 µL per well for the 384-well plate), and the mixture was mixed well. The mixture was then incubated at room temperature (about 25 °C) for 10 min to stabilize the luminescent signal. Finally, chemiluminescence was detected using a multimode microplate reader with a chemiluminescence detection function. The obtained data were analyzed using GraphPad Prism 7.0 software. A sigmoidal dose-survival rate curve was plotted using a non-linear regression model, and the IC50 values were calculated.

in vivo = conditions: mouse, plasma, po, 100 mg/kg
Procedure: After adding 5% DMSO, the mixture was vortexed. 15% HS15 was then added, and the mixture was vortexed again. Finally, a 10% aqueous cyclodextrin solution was added, and the resulting mixture was vortexed to prepare the final concentration solution or suspension.

[3] = Saturated solubility in FaSSIF solution; format: physicochemical; conditions: room temperature, stirred overnight
Procedure: Efficacy Experimental Example 9: Test of Saturated Solubility of Samples in FaSSIF Solution
About 0.21 g of sodium hydroxide, about 2.24 g of sodium dihydrogen phosphate dihydrate, and 3.09 g of sodium chloride were weighed out and dissolved in 500 mL of water, and after dissolution, the pH was adjusted to 6.5 with 1 N sodium hydroxide or 1 N hydrochloric acid.
112 mg of FaSSIF solid was weighed out and placed in a 50 mL volumetric flask, and the buffer described above was added for dissolution. The resulting solution was diluted to volume, mixed well, and left to stand at room temperature for 2 h or more.
Test sample: About 1 mg of the test sample was taken, and 1 mL of FaSSIF solution was added. The mixture was stirred at room temperature overnight and centrifuged, and the supernatant was collected and injected for analysis.
Reference sample solution: About 1.5 mg of the test sample was precisely weighed out and placed in a 50 mL volumetric flask, and DMF was added for dissolution. The resulting solution was diluted to volume and mixed well.
The peak of the main component of the reference sample and the peak of the test sample with the same retention time were integrated, and the concentration thereof in the FaSSIF solution was calculated according to the external standard method.

[4] = Pharmacokinetic test in mice (low dose); format: in vivo, Balb/c mice; conditions: mouse, plasma, mice; for AUC(0-t): read-out: AUClast; for half-life: read-out: T1/2 (converted)
Procedure: The compounds of the present disclosure were administered to Balb/c mice by single intravenous injection and oral gavage, and the plasma of the mice at each time point was collected. The concentration of the compounds to be tested in BALB/C plasma was detected using the LC-MS/MS analysis method, and pharmacokinetic analysis was performed.
The mixture was vortexed, shaken, and ultrasonicated. The remaining volume of 25% sulfobutylether-β-cyclodextrin (sterilized) was added to prepare the final concentration solution or suspension.
Intravenous injection formulations will be directly administered in animal experiments without filtration. The IV drug preparation vials were disinfected in an infrared sterilization cabinet one day in advance.
Intravenous injection: Administration was performed via the tail vein. After the needle was inserted, the syringe was slowly […].
Gavage: Gavage needle and syringe of an appropriate type were selected. The gavage needle was inserted from the root of the tongue into the esophagus until it reached near the cardia of the stomach, then the drug formulation was injected, and the gavage needle was withdrawn. When disposable plastic gavage needles were used, one needle was used for each group.
At each time point, 60 µL of whole blood was collected from the submandibular vein or tail vein (except for the IV group). The blood sample was added to a pre-cooled anticoagulant blood collection tube containing anticoagulant EDTA-K2 (1 µL, 15% EDTA-K2 solution), placed on wet ice, and centrifuged (3000 g, 4 °C, 10 min) within 1 h. The plasma was immediately collected after centrifugation, transferred to an EP tube, and stored at -90 °C to -60 °C.
Plasma concentration detection: A developed LC-MS/MS method was used to detect the compounds in plasma.
The plasma concentration-time data were analyzed using a non-compartmental model in the Phoenix® WinNonlin® (Version 8.2, Pharsight, Mountain View, CA).

[5] = 293T reporter cells, 24 h of drug treatment, read-out: IC50

SMILES | IC50 [1] [nM] | IC50 (NCI-H28 (NF2 wide-type)) [nM] | IC50 [2, 5] [nM] | IC50 ([2]; 24 h) [nM] | other results
Cn1cnc(-c2cc(P(C)(C)=O)ccc2Nc2ccc3c(c2)OC(F)(F)O3)c1 [Example 30] | – | – | – | 23.7 | –
Cn1cnc(-c2cc(P(C)(C)=O)ccc2Nc2ccc(Cl)cc2)c1 [Example 32] | – | – | – | 78.5 | –
CP(C)(=O)c1cnc(Nc2ccc(C(F)(F)F)cc2)c(-c2ccccn2)c1 [Example 33] | – | – | – | 19.8 | –
CP(C)(=O)c1cnc(Nc2ccc(S(F)(F)(F)(F)F)cc2)c(-c2cn3c(n2)CCC3)c1 [Example 37] | – | – | – | 5.93 | –
CP(C)(=O)c1cnc(Nc2ccc(Cl)cc2)c(-c2cn3c(n2)CCC3)c1 [Example 38] | – | – | – | 28.7 | –

Second part, led by results:

IC50 [1] [nM] | IC50 (NCI-H28 (NF2 wide-type)) [nM] | IC50 [2, 5] [nM] | SMILES | IC50 ([2]; 24 h) [nM] | other results
> 50000 | > 20000 | 283 | CP(C)(=O)c1ccc2c(Oc3ccc(Cl)cc3)cccc2c1 [Example 28] | – | –
> 1250 | > 1250 | 4.65 | Cc1cc(Oc2ccc(C(F)(F)F)cc2)c2ccc(P(C)(C)=O)cc2c1 [Example 29] | – | AUC(0-t) (in vivo): 2160 µM·h; FaSSIF(pH = 6.5) [3]: 223.4 ug/mL; AUC(0-t) ([4]; IV 2 mg/kg): 50.8 µM·h; clearance ([4]; IV 2 mg/kg, read-out: Cl (converted)): 0.4 mL/min/kg; half-life ([4]; IV 2 mg/kg): 63.5 h; bioavailability ([4]; PO 10 mg/kg vs IV 2 mg/kg, read-out: F%): 99%; AUC(0-t) ([4]; PO 10 mg/kg): 251 µM·h; Cmax ([4]; PO 10 mg/kg, read-out: Cmax): 13.3 µM; half-life ([4]; PO 10 mg/kg): 17 h
– | – | 61.9 | Cn1cnc(-c2cc(P(C)(C)=O)ccc2Nc2ccc(S(F)(F)(F)(F)F)cc2)c1 [Example 31] | – | –
> 5000 | > 5000 | 191 | Cn1cnc(-c2cc(P(C)(C)=O)cnc2Nc2ccc3c(c2)OC(F)(F)O3)c1 [Example 34] | – | –
> 20000 | > 20000 | 39.2 | Cn1cnc(-c2cc(P(C)(C)=O)cnc2Nc2ccc(S(F)(F)(F)(F)F)cc2)c1 [Example 36] | – | –
> 1250 | > 1250 | 32.4 | CP(C)(=O)c1cnc(Nc2ccc3c(c2)OC(F)(F)O3)c(-c2cn3c(n2)CCC3)c1 [Example 39] | – | –

Source: patent publication EP4596561A1, “PHOSPHORUS-CONTAINING COMPOUND, PHARMACEUTICAL COMPOSITION AND USE THEREOF” (Suzhou Genhouse Bio Co., Ltd., priority 2022, dated 2024)
